≈ marks a conversion by molar mass, not a printed value. Like-named read-outs stand apart in the source and are kept apart here.
Experiments:
Aureobasidium pullulans = assay: Minimum Inhibition Concentration (MIC); type: cell-based
Experimental: The retention factor, R, referred to above is determined from the equation R=A/P, where A represents the percentage active ingredient by weight remaining in the pore system after contacting with water according to the conditions defined herein and P represents the potency (Minimum Inhibition Concentration in mg of active ingredient per liter) of the biocide determined with respect to the reference microorganism Aureobasidium pullulans using the procedure defined herein.
The usefulness of the inorganic carrier particle will depend on the particular biocide being used, its effectiveness at various activity levels and the quantity of biocide (active ingredient) adsorbed and retained in the pore system. […]
The minimum inhibition concentration (MIC) is a measure of the potency of a biocide and comprises the minimum concentration (ppm) of a biocide active or formulation (normally quoted in terms of the active ingredient) determined experimentally in vitro to prevent the growth of a pure culture of a reference microorganism. […]
A standardised culture of the microbe under lest is prepared. […] The concentration at which no growth is detected is the minimum inhibition concentration (MIC) for that particlar biocide and reference organism. […]

[1] = tested on: Cladosporium cladosporioides; assay: Water leaching of paint discs: zone of inhibition before and after 24 hours leach; type: cell-based; details: acrylic high build paint; for Zone of Inhibition After Leaching: 24 hours water leach
Experimental: The method allows an assessment of the level of protection afforded by incorporating a biocide into a paint formulation. Filter discs (Whatman International Limited, Maidstone, Kent), Type 54, hardened 42.5 mm diameter were brush painted on one side of the disc with the test paints (24 hours between coats, 3 replicates per paint) to give an average loading of 0.05 g dried paint. The painted discs were cured at 60° C. for 2 days. One set of discs is then washed with a large volume of distilled water (20 liters) under controlled flow for 24 hours at ambient temperatures.
A freeze dried ampoule of Cladosporium cladosporioides (strain no. FS33 ex. Paint Research Association, Teddington, UK) was revived on potato dextrose agar (Oxoid Limited, Basingstoke, UK). A spore innoculum was prepared from the resultant sporing culture (5-7 days growth at 25° C.) by adding 5 ml of sterile distilled water to the surface of the culture on the agar and gently rubbing the surface with a sterile loop to dislodge the spores' mycelium. The resultant suspension was filtered through sterile wool and the filtrate used to seed molten (45° C.) potato dextrose agar prior to pouring into sterile Petri dishes.
Each painted disc was placed on the surface of the seeded agar plate, and the plates placed in a fridge (6-8° C.) for 24 hours to allow diffusion of the biocide. After this period, they were transferred to an incubator at 25° C. for five days. The diameter of the disc, plus any zone of inhibition (no fungal growth) around the discs was measured. An average of the three replicates is taken as a data point.
The biocidal efficiency of the two carriers (SD 2209 and SD 1866) loaded, at 30% by weight, with OIT and DCOIT in the acrylic high build formulation was compared before, and after, a 24 hours leach using procedure (ix) described hereinbefore. The paints containing the biocide carrying particles and those where the biocide was incorporated as the free biocide where used in the example.

[2] = tested on: Cladosporium cladosporioides; assay: Surface growth on painted discs after a further 14 days incubation; type: cell-based; details: biocide 300 ppm; for Zone of Inhibition After Leaching (surface of paint discs examined for growth): after water leaching
Experimental: To further distinguish performance the inoculated petri dishes containing the painted discs were incubated for a further 14 days so as to examine the extent of encroachment of the fungi into the surface of the paint film. The dishes were removed from the incubator and the surface of the paint discs examined for growth.

[3] = tested on: standard mixed inoculum of BS 3900: Part G6: 1989 with Alternaria altarnata; assay: Prolonged protection on paint panels (BS 3900: Part G6: 1989); type: cell-based; details: weathered panels; for Fungal growth rating % Cover D28: Day 28; for Fungal growth rating % Cover D84: Day 84
Experimental: Candidate carrier materials dispersed in water borne acrylic emulsion paint were subjected to the procedure of BS 3900: Part G6: 1989 to assess their long term fungicidal efficiency when compared with the biocide added directly to the paint.
Masterboard panels (150 mm×150 mm) were brush coated on one side with the test paints (2 coats, 24 hours between coats) and cured at 60° C. for two days. The coated panels were then weathered in a QUV apparatus (The Q-Panel Co. Bolton, UK) under the following conditions: 125±5 hours exposure to UVA (340 nm) at 40° C. with 1 hour water spray at approximately 24 hour intervals (5 in total). During the water spray the temperature cools to about 20° C.
After weathering the panels were cut into two equal samples and subjected to the procedure described in BS 3900: Part G6:1989. The control paint was the test paint without biocide. Alternaria altarnata was included in the standard mixed inoculum of BS 3900: Part G6: 1989.
Visual examination of the panels was carried out after 28, 36 and 84 days. In accordance with the standard procedure, the percentage cover of each panel by fungal growth was assessed.
Following on from the observations of Example 4, the two carriers SD 2209 and SD 1866 loaded, at 30% by weight, with OIT and DCOIT were incorporated into the paint formulation specified in Example 4 and subjected to BS 3900: Part G6 as described in procedure (x) hereinbefore to assess their long term film fungicidal efficiency in comparison with OIT and DCOIT added directly to the paint.
Masterboard panels (150 mm×150 mm) were brush coated on one side with the test paints (2 coats, 24 hours between coats) and cured at 60° C. for two days. The coated panels were then weathered in a QUV apparatus as described hereinbefore in procedure (x). After weathering the panels were cut into two equal samples and subjected to the procedure described in BS 3900: Part G6: 1989. The panels were exposed for 28, 36, and 84 days, in accordance with the standard procedure, and the percentage cover of each panel by fungal growth was assessed at these stages.

[4] = 50.98 %
Experimental: (§1) The loaded biocides, together with the stock solutions, were spread on petri dishes and either placed in an incubator at 60° C. or exposed to U.V. irradiation in a Microscal unit (Miscoscal Limited, London) fitted with a 500 W high pressure mercury/tungsten lamp (wavelength>300 nm) operating at temperature 50° C. and a relative humidity in the region of 50%. […] Samples were withdrawn from the petri dishes undergoing thermal treatment and exposure to U.V. irradiation on a regular basis over a period in the region of 50 days. The amount of biocide remaining in each withdrawn sample was determined at the time of withdrawal using second derivative U.V.-visible Spectroscopy. The amount of biocide remaining in the stock solutions was determined by Gas Chromatography Mass Spectrometry. Relative peak heights corresponding to the residual parts of OIT, CIT and MIT were used to determine the concentrations of biocide in each sample.

[5] = 50.98 %; remark: listed apart in the source
Experimental: as §1

[6] = tested on: standard mixed inoculum of BS 3900: Part G6: 1989 with Alternaria altarnata; assay: Prolonged protection on paint panels (BS 3900: Part G6: 1989); type: cell-based; details: weathered panels
[7] = cited from earlier work
[8] = U.V. irradiation: biocide remaining
Experimental: as §1

[9] = Thermal ageing at 60° C.: biocide remaining; details: Thermal Ageing 60° C.
Experimental: as §1

Compound | Zone of Inhibition Before Leaching ([1]; biocide 300 ppm) [mm] | Zone of Inhibition After Leaching ([1]; biocide 300 ppm) | Zone of Inhibition Before Leaching ([1]; biocide 1,200 ppm) [mm] | Zone of Inhibition After Leaching ([1]; biocide 1,200 ppm) [mm] | Zone of Inhibition Before Leaching ([1]; biocide 4,000 ppm) [mm] | Zone of Inhibition After Leaching ([1]; biocide 4,000 ppm) [mm] | Zone of Inhibition Before Leaching (surface of paint discs examined for growth) [2] | Zone of Inhibition After Leaching (surface of paint discs examined for growth) [2] | Fungal growth rating % Cover D28 ([3]; biocide 300 ppm) [% cover] | Fungal growth rating % Cover D84 ([3]; biocide 300 ppm) [% cover] | Fungal growth rating % Cover D28 ([3]; biocide 1,200 ppm) [% cover] | Fungal growth rating % Cover D84 ([3]; biocide 1,200 ppm) [% cover] | Fungal growth rating % Cover D56 ([6]; biocide 300 ppm) [% cover] | Fungal growth rating % Cover D56 ([6]; biocide 1,200 ppm) [% cover] | water solubility relative to OIT, in words [7] | amount of original biocide remaining (MIT, CIT, MIT/CIT) ([8]; 0 days) | amount of original biocide remaining (MIT, CIT, MIT/CIT) ([8]; 7 days) | amount of original biocide remaining (MIT, CIT, MIT/CIT) ([8]; 25 days) | amount of original biocide remaining (MIT, CIT, MIT/CIT) ([8]; 32 days) | amount of original biocide remaining (MIT, CIT, MIT/CIT) ([8]; 39 days) | other results
CCCCCCCCn1sccc1=O [OIT, 2-Octyl-4-Isothiazolin-3-one] | 32 | OVERGROWTH | >42 | 1 | >42 | 1 | None | Growth | 35 | 85 | 3 | 35 | 85 | 35 |  |  |  |  |  |  | MIC (Aureobasidium pullulans; Aureobasidium pullulans, reference microorganism Aureobasidium pollulens): 36 µg/mL (≈ 169 µM); Minimum Inhibition Concentration (MIC) (Aureobasidium pullulans; reference microorganism Aureobasidium pullulans): 36 mg of active ingredient per liter; Fungal growth rating % Cover D28 ([3]; biocide 1,400 ppm): 0 % cover; Fungal growth rating % Cover D84 ([3]; biocide 1,400 ppm): 5 % cover; amount of original biocide remaining (OIT) ([4]; 0 h): 100; amount of original biocide remaining (OIT) ([4]; 288 h): 78; amount of original biocide remaining (OIT) ([4]; 432 h): 65; amount of original biocide remaining (OIT) ([4]; 960 h): 50; amount of original biocide remaining (OIT) ([5]; 0 h): 100; amount of original biocide remaining (OIT) ([5]; 336 h): 17; amount of original biocide remaining (OIT) ([5]; 1008 h): 1; Fungal growth rating % Cover D56 ([6]; biocide 1,400 ppm): 0 % cover
Cn1sc(Cl)cc1=O [CIT, 5-Chloro-2-Methyl-4-isothiazolin-3-one] |  |  |  |  |  |  |  |  |  |  |  |  |  |  | more water soluble than OIT | 100 | 0 | 0 | 0 | 0 | amount of original biocide remaining (MIT, CIT, MIT/CIT) ([9]; 0 days): 100; amount of original biocide remaining (MIT, CIT, MIT/CIT) ([9]; 7 days): 80; amount of original biocide remaining (MIT, CIT, MIT/CIT) ([9]; 12 days): 40; amount of original biocide remaining (MIT, CIT, MIT/CIT) ([9]; 18 days): 30; amount of original biocide remaining (MIT, CIT, MIT/CIT) ([9]; 26 days): 0
CCCCCCCCn1sc(Cl)c(Cl)c1=O [DCOIT, 4,5-Dichloro-2-Octyl-4-Isothiazolin-3-one] | 22 | OVERGROWTH | 25 | 1 | 38 | 2 | None | Growth | 23 | 85 | 8 | 68 | 85 | 55 |  |  |  |  |  |  | Fungal growth rating % Cover D28 ([3]; biocide 4,000 ppm): 0 % cover; Fungal growth rating % Cover D84 ([3]; biocide 4,000 ppm): 5 % cover; Fungal growth rating % Cover D56 ([6]; biocide 4,000 ppm): 0 % cover
Cn1sccc1=O [MIT, 2-Methyl-4-isothiazolin-3-one] |  |  |  |  |  |  |  |  |  |  |  |  |  |  | more water soluble than OIT | 100 | 78 | 69 | 62 | 50 | amount of original biocide remaining (MIT, CIT, MIT/CIT) ([8]; 55 days): 24; amount of original biocide remaining (MIT, CIT, MIT/CIT) ([9]; 0 days): 100; amount of original biocide remaining (MIT, CIT, MIT/CIT) ([9]; 7 days): 95; amount of original biocide remaining (MIT, CIT, MIT/CIT) ([9]; 12 days): 90; amount of original biocide remaining (MIT, CIT, MIT/CIT) ([9]; 18 days): 80; amount of original biocide remaining (MIT, CIT, MIT/CIT) ([9]; 40 days): 50

— patent US6905698B1, “Particulate carrier for biocide formulations” (Ineos Silicas Limited, priority 1998, dated 2005)
